Values of other authors as cited in patent US7449194B2, “Antimicrobial body covering articles” (priority 2002, dated 2008).

Details: in water; 21° C.

[O][Cl+][O-] [chlorine dioxide]
partition coefficient: 40
